# Test system: SUM149PT spheroids with HUVEC/MSC, viability
# Test: Anticancer human tumor SUM149PT cell line growth inhibition [GQUAD];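 also: spheroids exposed to drugs for seven days before readout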;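 as to viability, T/C: percent viability relative to DMSO vehicle control taken as 100%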
# Conditions: for IC50: curve of first compound; for viability, T/C: stronger effect = lower value
# Excerpt: DNA G-quadruplex Stabilizer Agents in Combinations in Complex Spheroids
# A high-throughput screen of multi-cell type tumor spheroids was designed to identify active combinations of DNA G-quadruplex stabilizer agents and targeted small molecules. Complex spheroids include a stromal component modeled by human endothelial cells (HUVEC) and fibroblasts modeled by human mesenchymal stem cells (MSCs). The concentration ranges selected for each drug and investigational agent were based upon clinically achievable concentrations if the clinical Cmax of the agent was known.
# Compounds. The drugs and investigational agents: pidnarulex (CX-5461; NSC782164), APTO-253 (NSC789042), BRACO-19 (NSC847499), peposertib (NSC802822), ceralasertib (NSC780249), elimusertib (NSC800525), camonsertib (NSC841442), AZD-1390 (NSC803789), olaparib (NSC753686), talazoparib (NSC767125), ART-558 (NSC835418), sotorasib (NSC818433), MRTX-1133 (NSC836407), SN-38 (NSC673596), topotecan (NSC609699), etoposide (NSC141540), doxorubicin (NSC123127), gemcitabine (NSC613327), 5-fluorouracil (NSC19893), paclitaxel (NSC125973), vemurafenib (NSC761431), panobinostat (NSC761190), R-306465 (JNJ-16241199; NSC773264), adavosertib (NSC754352), TP-3654 (NSC805149), carboplatin (NSC241240), KSQ-4279 (NSC840948), and staurosporine (NSC755774) were obtained from the National Cancer Institute (NCI) Developmental Therapeutics Program Chemical Repository (34). The FDA-approved anticancer drug set is available from the NCI Developmental Therapeutics Program. […] The stock solutions were prepared in dimethyl sulfoxide (DMSO, Sigma-Aldrich, St. Louis, MO, cat. D2650) at 800-fold the tested concentration and stored at -70 degrees C prior to their use. All drugs and investigational agents were tested over a range starting from a high concentration at or near the clinical Cmax and decreasing in half-log increments. If the clinical Cmax for an agent had not been determined, the highest concentration tested was 10 microM.
# 2.3 Cell Culture. All cells were maintained in an incubator at 37 degrees C and 5% CO2 with 95% humidity. The PDC lines were cultured according to standard operating procedures established by the NCI PDMR. All PDCs were thawed and cultured in Matrigel-coated flasks prepared with a working solution of 1X Ham's F-12 nutrient mix, without supplementation (Invitrogen, cat. 11765054), 100 U/mL penicillin-streptomycin (Invitrogen, cat. 15140122), and 2.5% Matrigel (Corning Inc., cat. 354248) for the first three passages. The 857933-349-R-J2-PDC line was cultured in 6C/Colon 1B media, which includes advanced DMEM/F-12 (Thermo Fisher Scientific, cat. 12634028), 10 mM HEPES (Thermo Fisher Scientific, cat. 15630080), 1X GlutaMAX supplement (Thermo Fisher Scientific, cat. 35050061), 0.1 mg/mL primocin (InvivoGen, cat. ant-pm-2), 10% defined fetal bovine serum, heat inactivated (HyClone Laboratories Inc., cat. SH30070.03HI), 50% L-WRN conditioned media (ATCC, cat. CRL-3276), 1.25 mM N-Acetyl-L-cysteine (Sigma-Aldrich, cat. A9165), 10 mM nicotinamide (Sigma-Aldrich, cat. N0636), 1X B-27 supplement (Thermo Fisher Scientific, cat. 17504044), 1X N-2 supplement (Thermo Fisher Scientific, cat. 17502048), 10 microM Y-27632 dihydrochloride (Tocris Bioscience, cat. 1254), and 50 ng/mL human EGF recombinant protein (Thermo Fisher Scientific, cat. PHG0311). The 485176-168-R4-J1-PDC line was cultured in Panc media, which includes all 6C/Colon 1B media components plus 100 ng/mL human FGF-10 (Thermo Fisher Scientific, cat. 100-26), 500 nM SB-431542 (Selleckchem, cat. S1067), and gastrin (Tocris, cat. 3006).
# […]
smiles,measurement,setting,value
C=CC(=O)N1CCN(c2nc(=O)n(-c3c(C)ccnc3C(C)C)c3nc(-c4c(O)cccc4F)c(F)cc23)C(C)C1 (configuration not stated) + Cc1cnc(CNC(=O)c2c(=O)c3ccc(N4CCCN(C)CC4)nc3n3c2sc2ccccc23)cn1,IC50,second compound 0.0316 µM,> 10 µM
same,IC50,second compound 0.1 µM,> 10 µM
same,IC50,second compound 0.316 µM,> 10 µM
same,IC50,second compound 1 µM,< 0.0316 µM
same,IC50,second compound 3.16 µM,< 0.0316 µM
same,IC50,second compound 10 µM,< 0.0316 µM
same,"viability, T/C","second compound 0.0316 µM, first compound 0.0316 µM",92.7%
same,"viability, T/C","second compound 0.0316 µM, first compound 0.1 µM",82.8%
same,"viability, T/C","second compound 0.0316 µM, first compound 0.316 µM",103%
same,"viability, T/C","second compound 0.0316 µM, first compound 1 µM",103%
same,"viability, T/C","second compound 0.0316 µM, first compound 3.16 µM",123%
same,"viability, T/C","second compound 0.0316 µM, first compound 10 µM",106%
same,"viability, T/C","second compound 0.1 µM, first compound 0.0316 µM",62.4%
same,"viability, T/C","second compound 0.1 µM, first compound 0.1 µM",66.6%
same,"viability, T/C","second compound 0.1 µM, first compound 0.316 µM",76.5%
same,"viability, T/C","second compound 0.1 µM, first compound 1 µM",77.1%
same,"viability, T/C","second compound 0.1 µM, first compound 3.16 µM",85.4%
same,"viability, T/C","second compound 0.1 µM, first compound 10 µM",70%
same,"viability, T/C","second compound 0.316 µM, first compound 0.0316 µM",61.9%
same,"viability, T/C","second compound 0.316 µM, first compound 0.1 µM",54.8%
same,"viability, T/C","second compound 0.316 µM, first compound 0.316 µM",56.5%
same,"viability, T/C","second compound 0.316 µM, first compound 1 µM",65.9%
same,"viability, T/C","second compound 0.316 µM, first compound 3.16 µM",66.9%
same,"viability, T/C","second compound 0.316 µM, first compound 10 µM",59.3%
same,"viability, T/C","second compound 1 µM, first compound 0.0316 µM",50%
same,"viability, T/C","second compound 1 µM, first compound 0.1 µM",46.1%
same,"viability, T/C","second compound 1 µM, first compound 0.316 µM",48.7%
same,"viability, T/C","second compound 1 µM, first compound 1 µM",51.6%
same,"viability, T/C","second compound 1 µM, first compound 3.16 µM",56.3%
same,"viability, T/C","second compound 1 µM, first compound 10 µM",46.7%
same,"viability, T/C","second compound 3.16 µM, first compound 0.0316 µM",40.7%
same,"viability, T/C","second compound 3.16 µM, first compound 0.1 µM",38.4%
same,"viability, T/C","second compound 3.16 µM, first compound 0.316 µM",42.5%
same,"viability, T/C","second compound 3.16 µM, first compound 1 µM",45.6%
same,"viability, T/C","second compound 3.16 µM, first compound 3.16 µM",47%
same,"viability, T/C","second compound 3.16 µM, first compound 10 µM",41.2%
same,"viability, T/C","second compound 10 µM, first compound 0.0316 µM",0.28%
same,"viability, T/C","second compound 10 µM, first compound 0.1 µM",2.73%
same,"viability, T/C","second compound 10 µM, first compound 0.316 µM",1.23%
same,"viability, T/C","second compound 10 µM, first compound 1 µM",2.1%
same,"viability, T/C","second compound 10 µM, first compound 3.16 µM",3.34%
same,"viability, T/C","second compound 10 µM, first compound 10 µM",0.29%

# — PubChem BioAssay AID2060484 (Molecular Pharmacology Branch, DTP, NCI, 2025)
